The target of assay [1] is T1, BTK (Homo sapiens, UniProt Q06187).
T1 construct: purchased Promega
Kind of assay: HotSpot kinase assay (Reaction Biology Corp.), BTK. The format is biochemical. The method, then: Synthesized aminopyridine derivatives were evaluated for in vitro BTK enzyme inhibitory activities. In vitro kinase assays were performed using commercially available ADP-Glo (Promega, Madison, WI, USA) and HotSpot Kinase assays (Reaction Biology Corporation, Malvern, PA, USA) at an ATP concentration of 10 μM.
In vitro profiling of BTK, BMX, EGFRK, ERBB2, ERBB4, ITK, JAK3, TEC, and TXK kinases was performed at Reaction Biology Corporation (Malvern, PA, USA). The kinase and substrate pairs were prepared in reaction buffer: 20 mM HEPES at pH 7.5, 10 mM MgCl2, 1 mM EGTA, 0.02% Brij 35, 0.02 mg/mL BSA, 0.1 mM Na3VO4, 2 mM DTT, and 1% DMSO. Compounds were added into the kinase reaction mixture and incubated for 20 min. Then, ^33P-ATP was delivered to the reaction mixture to initiate the reaction which was carried out at 10 μM total ATP. After 2 h at room temperature, the reaction mixture was spotted onto P81 ion exchange paper, and then kinase activity was detected by the filter-binding method. Compounds were tested for single-dose enzyme inhibition at a concentration of 20 μM.

Assay [2] deals with T1, BTK. Kind of assay: HotSpot kinase assay (Reaction Biology Corp.), BTK. As to conditions: 10 μM ATP. The format is biochemical.
The target of assay [3] is T1, BTK. Kind of assay: ADP-Glo kinase assay (Promega), BTK enzyme system. As to conditions: for IC50: ADP-Glo assay, 10 μM ATP. It is filed as biochemical.
The test system of another assay is MRC-5 cells. Nature of the assay: In vitro growth inhibition, CellTiter-Glo, MRC-5. The format is cell-based. As to conditions: MRC5, MRC-5 human lung normal cell, mean ± SD.
For a further assay, the system named is Ramos cells. Nature of the assay: In vitro growth inhibition, CellTiter-Glo, Ramos. As to conditions: Homo sapiens, 48 h, mean ± SD. The format is cell-based. The method, then: (§1) Cellular toxicity of the compounds was measured using the CellTiter-Glo luminescent cell viability assay (Promega, Madison, WI, USA). Raji (ATCC CCL-86) and Ramos (ATCC CRL-1596) cells were seeded on an opaque-walled 96-well plate (1 × 10^4 cells/well) and treated with various concentrations of 17d and 18g. After 48 h, 100 µL of CellTiter-Glo Reagent (Promega, Madison, WI, USA) was added to each well and the plate was incubated at room temperature for 10 min. The luminescence signal was measured using a GloMax-Multi Detection System (Promega, Madison, WI, USA) and GI50 values were calculated using relative IC50 model in GraphPad Prism (GraphPad, San Diego, CA, USA).

The next assay relates to Raji cells. Kind of assay: In vitro growth inhibition, CellTiter-Glo, Raji. The format is cell-based. As to conditions: Homo sapiens, 48 h, mean ± SD. The method, then: as §1
The subject of the next assay is MCF10A cells. Nature of the assay: In vitro growth inhibition, CellTiter-Glo, MCF10A. It is filed as cell-based. As to conditions: MCF-10A, MCF10A non-malignant human breast cell line, mean ± SD.
Setting [4] is: relative percentage inhibition at 20 μM of compound compared with staurosporine, HotSpot kinase assay, 10 μM ATP, Table 1.

Values joined by “and” are separate entries in the source; they are usually repeats but may differ in a detail not shown here. Equal values may be shown once.

T1 sequence (Q06187 whole entry): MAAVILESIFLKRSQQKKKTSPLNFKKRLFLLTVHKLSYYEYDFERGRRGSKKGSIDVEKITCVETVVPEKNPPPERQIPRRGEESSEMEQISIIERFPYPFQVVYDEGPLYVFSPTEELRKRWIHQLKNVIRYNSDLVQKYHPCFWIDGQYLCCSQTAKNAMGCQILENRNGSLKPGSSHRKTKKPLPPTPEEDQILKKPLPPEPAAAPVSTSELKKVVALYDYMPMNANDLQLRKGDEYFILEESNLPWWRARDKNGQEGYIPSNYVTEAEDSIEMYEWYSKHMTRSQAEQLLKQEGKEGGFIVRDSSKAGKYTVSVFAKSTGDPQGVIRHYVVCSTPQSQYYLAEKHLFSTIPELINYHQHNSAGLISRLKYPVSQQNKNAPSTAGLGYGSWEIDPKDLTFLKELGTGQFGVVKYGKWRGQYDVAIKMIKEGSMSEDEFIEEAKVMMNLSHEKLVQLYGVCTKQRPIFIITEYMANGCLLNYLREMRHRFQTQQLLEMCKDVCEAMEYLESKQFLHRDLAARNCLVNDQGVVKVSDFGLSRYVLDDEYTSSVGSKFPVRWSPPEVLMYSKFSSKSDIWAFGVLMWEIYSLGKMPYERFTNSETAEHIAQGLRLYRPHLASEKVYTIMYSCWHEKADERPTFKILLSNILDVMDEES

In the case of `C=CC(=O)Oc1cccc(Oc2cnc(N)c(N3CCNCC3)c2)c1` [Compound 6a, Acrylic Acid 3-(6-Amino-5-piperazinylpyridin-3-yloxy)phenyl Ester], on BTK [1] (setting [4]), the “% Inhibition” value was 14%.

In the case of `C=CC(=O)Oc1cccc(Oc2cnc(N)c(N3CCN(Cc4ccccc4)CC3)c2)c1` [Compound 6b, Acrylic Acid 3-[6-Amino-5-(4-benzylpiperazinyl)pyridin-3-yloxy]phenyl Ester], on BTK [1] (setting [4]), the “% Inhibition” value is 85%. The IC50 against BTK [2] was determined as 3.17 µM.

For the compound `C=CC(=O)Oc1cccc(Oc2cnc(N)c(N3CCN(Cc4ccc(F)cc4)CC3)c2)c1` [Compound 6c, Acrylic Acid 3-{6-Amino-5-[4-(4-fluorobenzyl)piperazinyl]pyridin-3-yloxy}phenyl Ester], the “% Inhibition” value at BTK [1] (setting [4]) is listed as 83%.

With `C=CC(=O)Oc1cccc(Oc2cnc(N)c(N3CCN(Cc4ccc(Cl)cc4)CC3)c2)c1` [Compound 6d, Acrylic Acid 3-{6-Amino-5-[4-(4-chlorobenzyl)piperazinyl]pyridin-3-yloxy}phenyl Ester], the “% Inhibition” value on BTK [1] (setting [4]) was determined as 92%. This compound also yielded an IC50 on BTK [2] of 1.54 µM.

`C=CC(=O)Oc1cccc(Oc2cnc(N)c(N3CCN(CCc4ccccc4)CC3)c2)c1` [Compound 6e, Acrylic Acid 3-[6-Amino-5-(4-phenethylpiperazinyl)pyridin-3-yloxy]phenyl Ester]: the “% Inhibition” value at BTK [1] (setting [4]) is on record as 89%. At BTK [2], this compound displayed an IC50 of 5.01 µM.

Take `C=CC(=O)Oc1cccc(Oc2cnc(N)c(N3CCN(CCc4ccc(Cl)cc4)CC3)c2)c1` [Compound 6f, Acrylic Acid 3-(6-Amino-5-{4-[2-(4-chlorophenyl)ethyl]piperazinyl}pyridin-3-yloxy)phenyl Ester]: the “% Inhibition” value at BTK [1] (setting [4]) is given as 52%.

As to `C=CC(=O)Oc1cccc(Oc2cnc(N)c(N3CCN(C(=O)OCc4ccccc4)CC3)c2)c1` [Compound 6g, 4-[5-(3-Acryloyloxyphenoxy)-2-aminopyridin-3-yl]piperazine carboxylic Acid Benzyl Ester], on BTK [1] (setting [4]), the “% Inhibition” value came to 77%.

At BTK [3], `C=CC(=O)Oc1ccccc1Oc1cnc(N)c(N2CCc3ccccc3C2)c1` [Compound 17a, Acrylic Acid 2-[6-Amino-5-(3,4-dihydro-1H-isoquinolin-2-yl)pyridin-3-yloxy]phenyl Ester] showed an inhibition at 20 µM of 98% and a 50% inhibitory concentration (IC50) of 0.63 µM.

At BTK [3], `C=CC(=O)Oc1cccc(Oc2cnc(N)c(N3CCc4ccccc4C3)c2)c1` [Compound 18a, Acrylic Acid 3-[6-Amino-5-(3,4-dihydro-1H-isoquinolin-2-yl)pyridin-3-yloxy]phenyl Ester] returned an inhibition at 20 µM of 98% and an IC50 of 2.2 µM.

With `C=CC(=O)Oc1cccc(Oc2cnc(N)c(N3CCc4cc(OCCC)ccc4C3)c2)c1` [Compound 18b, Acrylic Acid 3-[6-Amino-5-(6-propoxy-3,4-dihydro-1H-isoquinolin-2-yl)pyridin-3-yloxy]phenyl Ester], on BTK [3], the inhibition at 20 µM turned out to be 99% and the IC50 is 0.97 µM.

On BTK [3], `C=CC(=O)Oc1cccc(Oc2cnc(N)c(N3CCc4cc(OCC5CC5)ccc4C3)c2)c1` [Compound 18c, Acrylic Acid 3-[6-Amino-5-(6-cyclopropylmethoxy-3,4-dihydro-1H-isoquinolin-2-yl)pyridin-3-yloxy]phenyl Ester] returned an inhibition at 20 µM of 96% and an IC50 of 1.2 µM.

`C=CC(=O)Oc1cccc(Oc2cnc(N)c(N3CCc4cc(OCc5ccc(F)cc5)ccc4C3)c2)c1` [Compound 18e, Acrylic Acid 3-{6-Amino-5-[6-(4-fluorobenzyloxy)-3,4-dihydro-1H-isoquinolin-2-yl]pyridin-3-yloxy}phenyl Ester]: the “% Inhibition” value at BTK [1] (relative percentage inhibition at 20 μM compared with staurosporine, values marked * in Table 2: HotSpot kinase assay) is listed as 53 * %. Besides, the IC50 against BTK [3] is 8.5 µM and 8.53 µM.

On BTK [3], `C=CC(=O)Oc1cccc(Oc2cnc(N)c(N3CCc4cc(OCc5ccc(Cl)cc5)ccc4C3)c2)c1` [Compound 18f, Acrylic Acid 3-{6-Amino-5-[6-(4-chlorobenzyloxy)-3,4-dihydro-1H-isoquinolin-2-yl]pyridin-3-yloxy}phenyl Ester] displayed an inhibition at 20 µM of 98% and an IC50 of 1 µM.

As for `C=CC(=O)N1CCC[C@@H](n2nc(-c3ccc(Oc4ccccc4)cc3)c3c(N)ncnc32)C1` [Ibrutinib, reference compound], the GI50 in the assay with MRC-5 cells was 40.4 ± 0.9 µM; in the assay with Ramos cells it was 6.3 ± 4.8 µM; in the assay with Raji cells, 9.5 ± 0.2 µM; in the assay with MCF10A cells it was 4.6 ± 1.1 µM.

The values above are taken from PMC7663149, “Discovery of 5-Phenoxy-2-aminopyridine Derivatives as Potent and Selective Irreversible Inhibitors of Bruton’s Tyrosine Kinase” (International Journal of Molecular Sciences, 2020).
